Experimental data reported in US3962282A, “Juvenile hormone mimics” (priority 1974, dated 1976).

Columns and labels:
Tenebrio molitor pupae = assay: topical application to Tenebrio molitor pupae, maturation inhibition; format: in vivo; conditions: rating scale 0-4
How it was run: (§1)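 Compounds applied topically, 1 μL acetone solution at 10%, 1% or 0.5%, to ten specimens per insect per concentration, alongside acetone and untreated controls; scored after about 8–10 days. Juvenile/adult characteristics rated 0–3 (Tenebrio 0–4), ≥2 meaning unable to reproduce; unreported specimens died during metamorphosis.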

milkweed bug = assay: topical application to milkweed bug, fourth nymphal stage, maturation inhibition; format: in vivo; conditions: rating scale 0-3
How it was run: as §1

wax moth = assay: topical application to wax moth, fifth larval stage, maturation inhibition; format: in vivo
How it was run: as §1

Mexican bean beetle = assay: topical application to Mexican bean beetle, fourth larval stage, maturation inhibition; format: in vivo; conditions: rating scale 0-3
How it was run: as §1

German cockroach nymphs = assay: topical application to 50-day-old German cockroach nymphs; format: in vivo, Blattella germanica
Excerpt: In another test, the nonadiene was applied topically to 50-day-old German cockroach nymphs. The compound was applied in acetone as a […], or 0.5 percent solution. Acetone controls and nontreated controls were also run. The roaches were then maintained in the laboratory until the controls reproduced. […] The 1 percent and 0.5 percent treatments did reproduce.

aphid nymphs = assay: application to aphid nymphs in acetone; format: in vivo, Aphis gossypi; conditions: 3 days
Method: In another test, female aphids were placed on young squash plants and allowed to produce young for 24 hours. After 24 hours, all adult aphids were removed from the plants and the young were maintained on the plants for an additional 48-hour period. This gave an aphid nymph population having an age of 48 to 72 hours. To each nymph was applied […]. of a 10 percent, 1 percent, or 0.5 percent solution of 2.6- dimethyl-9-(3,4-methylenedioxyphenyl)-2,6-nonadiene or 7,8-epoxy-4-ethyl-8-methyl-1-(3,4-methylenedioxyphenyl)-3-decene in acetone and the aphid nymphs were transferred to new squash plants and observed for possible effects. Ten nymphs were treated with each concentration of each compound and 10 were treated with acetone alone while 10 were not treated to serve as controls. […] There was only one dead nymph treated with acetone alone and one dead nymph in the nontreated controls.

[1] = test system: Mexican bean beetle larvae; assay: fumigant and residual activity in jars on Mexican bean beetle larvae; format: in vivo
Method: Fumigant and residual activity of 2,6-dimethyl-9-(3,4-methylenedioxyphenyl)-2,6-nonadiene was determined in the following manner. One milliliter of a 1 percent, a 0.1 percent or a 0.01 percent solution of the test compound was placed in the bottom of a one pint jar. A control was prepared using just acetone. The acetone was allowed to evaporate and 10 Mexican bean beetle larvae were placed on a screen 5 inches from the bottom. The jar was closed for one week at which time the controls emerge as adults and the treated ones are rated as described above. The larvae are replaced weekly.

SMILES: CC(C)=CCCC(C)=CCCc1ccc2c(c1)OCO2 [2,6-dimethyl-9-(3,4-methylenedioxyphenyl)-2,6-nonadiene]
- number of specimens in rating 4 (Tenebrio molitor pupae; 0.5%): 9 specimens
- number of specimens in rating 4 (Tenebrio molitor pupae; 1%): 10 specimens
- number of specimens in rating 4 (Tenebrio molitor pupae; 10%): 10 specimens
- number of specimens in rating 3 (milkweed bug; 0.5%): 10 specimens
- number of specimens in rating 3 (milkweed bug; 1%): 10 specimens
- number of specimens in rating 3 (milkweed bug; 10%): 5 specimens
- number of specimens in rating 0 (wax moth; 0.5%, rating scale 0-3): 8 specimens
- number of specimens in rating 1 (wax moth; 0.5%, rating scale 0-3): 1 specimens
- number of specimens in rating 0 (wax moth; 1%, rating scale 0-3): 9 specimens
- number of specimens in rating 3 (wax moth; 1%, rating scale 0-3): 1 specimens
- number of specimens in rating 0 (wax moth; 10% in acetone, 1 microliter topical, rating scale 0 (no effect) to 3 (maximum)): 7 specimens
- number of specimens in rating 1 (wax moth; 10%, rating scale 0-3): 2 specimens
- number of specimens in rating 3 (wax moth; 10%, rating scale 0-3): 1 specimens
- number of specimens in rating 3 (Mexican bean beetle; 0.5%): 9 specimens
- number of specimens in rating 3 (Mexican bean beetle; 1%): 10 specimens
- number of specimens in rating 3 (Mexican bean beetle; 10%): 1 specimens
- reproduction (German cockroach nymphs; 0.5 percent): did reproduce
- reproduction (German cockroach nymphs; 1 percent): did reproduce
- reproduction (German cockroach nymphs; 10 percent solution): did not reproduce
- wing formation (German cockroach nymphs; 10 percent solution): normal wing formation
- dead nymphs (aphid nymphs; 0.5 percent): nine of the ten
- dead nymphs (aphid nymphs; 1 percent): all of the nymphs
- dead nymphs (aphid nymphs; 10 percent): all of the nymphs
- number in rating 0 ([1]; Fifteenth Week, 0.01%): 10
- number in rating 0 ([1]; Fifteenth Week, 0.1%): 10
- number in rating 3 ([1]; Fifteenth Week, 1%): 10
- number in rating 0 ([1]; Fifth Week, 0.01%): 10
- number in rating 3 ([1]; Fifth Week, 0.1%): 10
- number in rating 3 ([1]; Fifth Week, 1%): 10
- number in rating 0 ([1]; First Week, 0.01% (0.1 mg.)): 5
- number in rating 2 ([1]; First Week, 0.01% (0.1 mg.)): 1
- number in rating 3 ([1]; First Week, 0.01% (0.1 mg.)): 4
- number in rating 3 ([1]; First Week, 0.1% (1 mg.)): 10
- number in rating 2 ([1]; First Week, 1% (10 mg.)): 1
- number in rating 3 ([1]; First Week, 1% (10 mg.)): 9
- number in rating 0 ([1]; Second Week, 0.01%): 4
- number in rating 2 ([1]; Second Week, 0.01%): 2
- number in rating 3 ([1]; Second Week, 0.01%): 4
- number in rating 3 ([1]; Second Week, 0.1%): 10
- number in rating 0 ([1]; Second Week, 1%): 1
- number in rating 3 ([1]; Second Week, 1%): 10
- number in rating 0 ([1]; Tenth Week, 0.01%): 10
- number in rating 0 ([1]; Tenth Week, 0.1%): 5
- number in rating 1 ([1]; Tenth Week, 0.1%): 2
- number in rating 2 ([1]; Tenth Week, 0.1%): 1
- number in rating 3 ([1]; Tenth Week, 0.1%): 2
- number in rating 3 ([1]; Tenth Week, 1%): 10
- number in rating 3 ([1]; Twenty-second Week, 1%): 10
